Test results published in ChEMBL document CHEMBL1201862, “PubChem BioAssay data set” (2004).
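Cells were grown in 96-well plates and exposed to each compound for 48 hours at five concentrations; endpoints were interpolated linearly between bracketing concentrations, or set to the highest concentration if not reached. The concentration for 50% growth inhibition is given as GI50.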 Calls of active or inactive are those of the source. Cut-off read from the data, not from the text of the source: active = GI50 up to about 1.1 µM and inactive = higher.

Experiments:
Assay in all cases: growth of human tumour cells (NCI), 48 h
786-0 = system: 786-0
OVCAR-3 = system: OVCAR-3
PC-3 = system: PC-3
SNB-19 = system: SNB-19
HT-29 = system: HT-29
ACHN = system: ACHN
CCRF-CEM = system: CCRF-CEM
UO-31 = system: UO-31
OVCAR-5 = system: OVCAR-5
M14 = system: M14
MCF7 = system: MCF7
A549 = system: A549
SF-295 = system: SF-295
NCI-H460 = system: NCI-H460
CAKI-1 = system: CAKI-1
HL-60 = system: HL-60
UACC-62 = system: UACC-62
DU-145 = system: DU-145
SK-MEL-2 = system: SK-MEL-2
HOP-62 = system: HOP-62
MDA-MB-231 = system: MDA-MB-231
SK-MEL-5 = system: SK-MEL-5
SF-268 = system: SF-268
NCI/ADR-RES = system: NCI/ADR-RES
SK-MEL-28 = system: SK-MEL-28
K562 = system: K562
A498 = system: A498
SK-OV-3 = system: SK-OV-3
HCT-15 = system: HCT-15
NCI-H23 = system: NCI-H23
MDA-N = system: MDA-N
BT-549 = system: BT-549
MDA-MB-435 = system: MDA-MB-435
IGROV-1 = system: IGROV-1
KM12 = system: KM12
Malme-3M = system: Malme-3M
U-251 = system: U-251
HCC 2998 = system: HCC 2998
EKVX = system: EKVX
SN12C = system: SN12C
SW-620 = system: SW-620
OVCAR-4 = system: OVCAR-4
COLO 205 = system: COLO 205
SR = system: SR
NCI-H522 = system: NCI-H522
TK-10 = system: TK-10
RPMI-8226 = system: RPMI-8226
SF-539 = system: SF-539
OVCAR-8 = system: OVCAR-8
NCI-H226 = system: NCI-H226
UACC-257 = system: UACC-257
LOX IMVI = system: LOX IMVI
HCT-116 = system: HCT-116
MOLT-4 = system: MOLT-4

Structure (SMILES): CC1CNC(NS(=O)(=O)c2cc(C(=O)Nc3ccc(Cl)cc3)c(Cl)cc2S)=NN1 (centres undefined)
- GI50 (786-0): 42.1 µM (inactive)
- GI50 (OVCAR-3): 28.2 µM (inactive)
- GI50 (PC-3): 30 µM (inactive)
- GI50 (SNB-19): 35.1 µM (inactive)
- GI50 (HT-29): 36.3 µM (inactive)
- GI50 (ACHN): 40 µM (inactive)
- GI50 (CCRF-CEM): 34.9 µM (inactive)
- GI50 (UO-31): 49.7 µM (inactive)
- GI50 (OVCAR-5): 38.5 µM (inactive)
- GI50 (M14): 21.7 µM (inactive)
- GI50 (MCF7): 45 µM (inactive)
- GI50 (A549): 28.6 µM (inactive)
- GI50 (SF-295): 35.8 µM (inactive)
- GI50 (NCI-H460): 38.5 µM (inactive)
- GI50 (CAKI-1): 51.5 µM (inactive)
- GI50 (HL-60): > 100 µM (inactive)
- GI50 (UACC-62): 29.2 µM (inactive)
- GI50 (DU-145): 30.2 µM (inactive)
- GI50 (SK-MEL-2): 28.9 µM (inactive)
- GI50 (HOP-62): 41.5 µM (inactive)
- GI50 (MDA-MB-231): 37.8 µM (inactive)
- GI50 (SK-MEL-5): 14.1 µM (inactive)
- GI50 (SF-268): 11.5 µM (inactive)
- GI50 (NCI/ADR-RES): 36.6 µM (inactive)
- GI50 (SK-MEL-28): 22.3 µM (inactive)
- GI50 (K562): 31.1 µM (inactive)
- GI50 (A498): 18.1 µM (inactive)
- GI50 (SK-OV-3): 59.4 µM (inactive)
- GI50 (HCT-15): 20.8 µM
- GI50 (NCI-H23): 27.4 µM (inactive)
- GI50 (MDA-N): 27.3 µM (inactive)
- GI50 (BT-549): 53.7 µM (inactive)
- GI50 (MDA-MB-435): 23.4 µM (inactive)
- GI50 (IGROV-1): 36.1 µM (inactive)
- GI50 (KM12): 28.1 µM (inactive)
- GI50 (Malme-3M): 17.9 µM (inactive)
- GI50 (U-251): 37.2 µM (inactive)
- GI50 (HCC 2998): 19.1 µM (inactive)
- GI50 (EKVX): 63 µM (inactive)
- GI50 (SN12C): 38.8 µM (inactive)
- GI50 (SW-620): 34.1 µM (inactive)
- GI50 (OVCAR-4): 28.6 µM (inactive)
- GI50 (COLO 205): 41.7 µM (inactive)
- GI50 (SR): 27.2 µM (inactive)
- GI50 (NCI-H522): 28.2 µM (inactive)
- GI50 (TK-10): 81.7 µM (inactive)
- GI50 (RPMI-8226): 28.9 µM (inactive)
- GI50 (SF-539): 30.8 µM (inactive)
- GI50 (OVCAR-8): 25.4 µM (inactive)
- GI50 (NCI-H226): 27.5 µM (inactive)
- GI50 (UACC-257): 54.2 µM (inactive)
- GI50 (LOX IMVI): 27.4 µM (inactive)
- GI50 (HCT-116): 27 µM (inactive)
- GI50 (MOLT-4): 52.8 µM (inactive)
